# Read-outs that look alike come from different tables or passages of the source.
# Tests used:
# [1] = Experimental: Five patients suffering from acute myleogenous leukemia (AML) in remission received treatment with histamine dihydrochloride diluted in sterile sodium chloride. Histamine was administered morning and night at separate subcutaneous injection sites over a period of 21 consecutive days. The histamine was given as subcutaneous injections using 1 ml syringes containing […] of histamine per ml. The histamine treatment was given twice daily (morning and night) at a dosage of 0.4 to 0.7 mg histamine per injection (i.e., a daily total dose of histamine of 0.8 to 1.4 mg per day).
# Peripheral blood venous samples were drawn in 10 ml heparinized test tubes before the onset of treatment and weekly thereafter. The samples were drawn at least 8 hours after the last injections of histamine. The concentration of histamine in the whole blood samples was analyzed by the use of a double antibody radioimmunoassay kit obtained from Bionerica, Inc., Newport Beach, Calif. 92663 (catalog number 1051). The manufacturer's instructions provided with the kit, dated June, 1989, were followed. Blood histamine levels were measured at the indicated times.
# [2] = tested on: prostate tumor; conditions: histamine s.c. 0.5-2.0 mg per day one week before surgery, blood histamine kept at at least about 0.2 μM after
# Experimental: Accordingly, a pharmaceutically acceptable form of histamine in a sterile carrier solution is injected subcutaneously into a patient suffering from prostate cancer for one week (0.5-2.0 mg per day) prior to surgery.
# Once the tumor is removed, circulating levels of blood histamine are maintained at at least about 0.2 μM until a complete response is observed. The tumorcidal response is evaluated by determining the level of PSA antigen in the patient over time according to conventional methods.
# [3] = tested on: prostate tumor; conditions: histamine s.c. 0.5-2.0 mg per day one week before external beam radiation (60-70 Gy), continued after
# Experimental: The tumorcidal response is evaluated by determining the level of PSA antigen in the patient over time according to conventional methods.
# [4] = tested on: breast cancer; conditions: histamine s.c. 0.5-1.0 mg per injection 1-2 times per day with humanized 131I labeled p185^HER-2 antibody
# Experimental: Accordingly, a pharmaceutically acceptable form of histamine in a sterile carrier solution is injected subcutaneously into the patient for one week (0.5-1.0 mg per injection 1-2 times per day) prior to antibody therapy.
# The tumorcidal response is evaluated by determining the level of p185^HER-2 receptor in the patient over time according to conventional methods. (Quak and van Dongen, Eur. Arch. Otorhinolaryngol 251:1-5(1994)).
# [5] = tested on: melanoma; conditions: histamine s.c. 0.5-1.0 mg per injection 1-2 times per day with vaccine of killed mixture of three melanomic cell lines
# Excerpt: (Quak and van Dongen, Eur. Arch. Otorhinolaryngol 251:1-5(1994)).
# [6] = tested on: human SK-N-SH neuroblastoma xenografts; conditions: histamine 0.5 mg per day tail vein with 10 μCi 131I labeled BW575/9 mAb, versus BW575/9 by itself
# [7] = Effect of duration of histamine administration on efficacy and side effects; conditions: administered over less than 1 to 3 minutes; anaphalaxis, heart failure, broncospasm, flushing, headache etc.
# [8] = tested on: follicular non-Hodgkins lymphoma; conditions: cited from earlier work
Compound,persistence of circulating blood histamine levels ([1]; even after histamine administration was discontinued),"circulating blood histamine concentration following histamine administration ([1]; five AML patients in remission, s.c. 0.4 to 0.7 mg per injection twice daily, 21 days, samples at least 8 hours after last injection, less than 0.2 μM at start)",tumorcidal response (PSA antigen level over time) [2],tumorcidal response (PSA antigen level over time) [3],tumorcidal response (p185^HER-2 receptor level over time) [4],tumorcidal response (presence of melanoma over time) [5],tumorcidal response [6],side effects on rapid administration [7],treatment outcome in clinical trials [8]
NCCc1c[nH]cn1 [histamine],remained elevated for sustained periods of time,at least 0.2 μM,synergistic tumorcidal response is observed,synergistic tumorcidal response is observed,synergistic tumorcidal response is observed,synergistic tumorcidal response is observed,greater tumorcidal response,more pronounced and serious sides effects,–
^131I labeled anti-B1 (Bexxar) mAb: 131I radiolabeled mAb raised to the CD-20 antigens expressed on the surface of mature B-cells,–,–,–,–,–,–,–,–,successful in treating follicular non-Hodgkins lymphoma
